Results published in patent publication US20170368082A1, “FORMULATIONS OF BRINCIDOFOVIR” (priority 2016, published 2017).

Test: Tissue distribution by quantitative whole-body autoradiography (QWBA)
Assay type: in vivo, male Sprague Dawley and Long-Evans rats
Conditions: for AUCall Ratio (PO/IV) / Cmax Ratio (PO/IV): 15 mg/kg, Group 7 vs Group 4
Description: The study utilized 4 groups of male SD rats (albino), and 3 groups of male LE rats (pigmented); a total of 39 rats. All animals were obtained from Hilltop Lab Animals, Inc. (Scottdale, Pa.). […] Rats in Group 5 were administered a single 2-h IV infusion of [^14C]brincidofovir at a target dose of 2 mg/kg. […] Three dosing formulations (one for high dose IV, one for low dose IV, and one for PO dose) were prepared at QPS on the day of dosing. The IV formulation for Groups 1, 2, 3, and 4 contained a vehicle of 10 mM sodium phosphate buffer in 5% dextrose solution at pH 8.0(±0.1).
Each animal, at their respective termination time points, was euthanized for QWBA analysis immediately after blood collection. One rat per time point per Group was euthanized as listed below.
The blood samples were maintained on wet ice (approximately 4° C.) and then centrifuged to obtain plasma within 1 h of the blood collection time. Centrifuge settings were recorded in the study notebook. Duplicate aliquots of plasma (0.050 mL) were analyzed for radioactivity using direct counting by LSC, and residual plasma was stored at approximately −70° C. and was saved for possible future analysis under a separate study protocol. Residual red blood cells were discarded as radioactive waste.
The pinna, distal limbs, hair, and tail were removed from each frozen carcass and each frozen carcass was embedded in an aqueous suspension of approximately 2% (w/v) carboxymethylcellulose and frozen into a block. The blocks were stored at approximately −20° C. prior to sectioning. Each blocked carcass was mounted on the object stage of a cryomicrotome (Leica CM3600 Cryomacrocut, Nussloch, Germany and Vibratome 9800, St. Louis, Mo.) maintained at approximately −20° C. and internal standards (3), which were plasma fortified with [^14C]-glucose at one concentration (approximately 0.05 μCi/mL), were placed into the frozen blocks, prior to sectioning, and were used for section thickness quality control. A number of whole-body sections (approximately 40 μm thick) were taken in the sagittal plane at various levels of interest using a whole-body cryomicrotome set at −20° C. Sagittal sections (20-50 μm thick) of frozen carcasses were exposed to phosphor imaging plates. Regions of images in tissues were converted to concentrations using standards. All of the major tissues, organs, and biological fluids were represented.
Tissue concentration data was determined for the following tissues and/or contents: adipose (brown and white), adrenal gland, bile (in duct), blood (cardiac), bone, bone marrow, brain (cerebrum, cerebellum, medulla), cecum (and contents), large intestine (and contents), epididymis, esophagus, eye (uvea and lens), Harderian gland, heart, kidney (cortex and medulla), liver, lung, lymph node, pancreas, pituitary gland, prostate gland, salivary gland, seminal vesicles, skeletal muscle, skin (pigmented and non-pigmented), small intestine (and contents), stomach (gastric mucosa and contents), spleen, spinal cord, testis, thymus, thyroid, and urinary bladder (and contents).
The imaging plate and sections were placed in light-tight exposure cassettes, in a copper-lined lead safe, for a 4-day exposure at room temperature. […] Quantification was performed by image densitometry using MCD image analysis software (v. 7.0, Interfocus Imaging Ltd) and a standard curve constructed from the integrated response [i.e., Molecular Dynamics Counts per square millimeter (MDC/mm^2)] and the nominal concentrations of the ^14C-calibration standards. The concentrations of radioactivity were expressed as the μg equivalents of [^14C]brincidofovir per gram sample (μg equiv/g). A lower limit of quantification (LLOQ) was applied to the data (See section 6.7.4).
Tissue concentrations that fell below the LLOQ were identified as being below the quantification limit (BQL). Tissue areas that were not visualized on autoradiographic images were identified as no sample (NS) and reported as BQL.

## CCCCCCCCCCCCCCCCOCCCOP(=O)(O)CO[C@H](CO)Cn1ccc(N)nc1=O [[^14C] brincidofovir]
Adipose (brown)
  AUCall Ratio (PO/IV): 0.25
  Cmax Ratio (PO/IV): 0.18
Adipose (brown), 2 h IV infusion 15 mg/kg, Group 4
  AUCall: 96.6220 μg equiv · h/g
Adipose (brown), 2 h IV infusion 15 mg/kg, Group 4, LLOQ 0.036
  Tissue Concentration (168 h): 0.132 μg equiv/g
Adipose (brown), PO 15 mg/kg, Group 7, LLOQ 0.034
  Tissue Concentration (168 h): 0.037 μg equiv/g
Adipose (brown), PO 15 mg/kg, Group 7
  AUCall: 24.3703 μg equiv · h/g
Adipose (white)
  AUCall Ratio (PO/IV): 0.16
  Cmax Ratio (PO/IV): 0.24
Adipose (white), 2 h IV infusion 15 mg/kg, Group 4
  AUCall: 7.1955 μg equiv · h/g
Adipose (white), 2 h IV infusion 15 mg/kg, Group 4, LLOQ 0.036
  Tissue Concentration (168 h): BQL
Adipose (white), PO 15 mg/kg, Group 7, LLOQ 0.034
  Tissue Concentration (168 h): BQL
Adipose (white), PO 15 mg/kg, Group 7
  AUCall: 1.1215 μg equiv · h/g
Adrenal Gland
  AUCall Ratio (PO/IV): 0.19
  Cmax Ratio (PO/IV): 0.28
Adrenal Gland, 2 h IV infusion 15 mg/kg, Group 4
  AUCall: 384.2580 μg equiv · h/g
Adrenal Gland, 2 h IV infusion 15 mg/kg, Group 4, LLOQ 0.036
  Tissue Concentration (168 h): 0.49 μg equiv/g
Adrenal Gland, PO 15 mg/kg, Group 7, LLOQ 0.034
  Tissue Concentration (168 h): 0.058 μg equiv/g
Adrenal Gland, PO 15 mg/kg, Group 7
  AUCall: 74.5860 μg equiv · h/g
Blood (cardiac)
  AUCall Ratio (PO/IV): 0.48
  Cmax Ratio (PO/IV): 0.21
Blood (cardiac), 2 h IV infusion 15 mg/kg, Group 4
  AUCall: 45.3555 μg equiv · h/g
Blood (cardiac), 2 h IV infusion 15 mg/kg, Group 4, LLOQ 0.036
  Tissue Concentration (168 h): BQL
Blood (cardiac), PO 15 mg/kg, Group 7, LLOQ 0.034
  Tissue Concentration (168 h): BQL
Blood (cardiac), PO 15 mg/kg, Group 7
  AUCall: 21.9165 μg equiv · h/g
Bone Marrow
  AUCall Ratio (PO/IV): 0.35
  Cmax Ratio (PO/IV): 0.12
Bone Marrow, 2 h IV infusion 15 mg/kg, Group 4
  AUCall: 197.3860 μg equiv · h/g
Bone Marrow, 2 h IV infusion 15 mg/kg, Group 4, LLOQ 0.036
  Tissue Concentration (168 h): 0.232 μg equiv/g
Bone Marrow, PO 15 mg/kg, Group 7, LLOQ 0.034
  Tissue Concentration (168 h): 0.094 μg equiv/g
Bone Marrow, PO 15 mg/kg, Group 7
  AUCall: 68.7413 μg equiv · h/g
Bone
  AUCall Ratio (PO/IV): 0.30
  Cmax Ratio (PO/IV): 0.39
Bone, 2 h IV infusion 15 mg/kg, Group 4
  AUCall: 6.1805 μg equiv · h/g
Bone, 2 h IV infusion 15 mg/kg, Group 4, LLOQ 0.036
  Tissue Concentration (168 h): BQL
Bone, PO 15 mg/kg, Group 7, LLOQ 0.034
  Tissue Concentration (168 h): BQL
Bone, PO 15 mg/kg, Group 7
  AUCall: 1.8470 μg equiv · h/g
Brain (cerebellum)
  AUCall Ratio (PO/IV): 0.07
  Cmax Ratio (PO/IV): 0.07
Brain (cerebellum), 2 h IV infusion 15 mg/kg, Group 4
  AUCall: 12.1870 μg equiv · h/g
Brain (cerebellum), 2 h IV infusion 15 mg/kg, Group 4, LLOQ 0.036
  Tissue Concentration (168 h): BQL
Brain (cerebellum), PO 15 mg/kg, Group 7, LLOQ 0.034
  Tissue Concentration (168 h): BQL
Brain (cerebellum), PO 15 mg/kg, Group 7
  AUCall: 0.8610 μg equiv · h/g
Brain (cerebrum)
  AUCall Ratio (PO/IV): 0.08
  Cmax Ratio (PO/IV): 0.07
Brain (cerebrum), 2 h IV infusion 15 mg/kg, Group 4
  AUCall: 9.1765 μg equiv · h/g
Brain (cerebrum), 2 h IV infusion 15 mg/kg, Group 4, LLOQ 0.036
  Tissue Concentration (168 h): BQL
Brain (cerebrum), PO 15 mg/kg, Group 7, LLOQ 0.034
  Tissue Concentration (168 h): BQL
Brain (cerebrum), PO 15 mg/kg, Group 7
  AUCall: 0.7650 μg equiv · h/g
Brain (medulla)
  AUCall Ratio (PO/IV): 0.06
  Cmax Ratio (PO/IV): 0.06
Brain (medulla), 2 h IV infusion 15 mg/kg, Group 4
  AUCall: 9.7470 μg equiv · h/g
Brain (medulla), 2 h IV infusion 15 mg/kg, Group 4, LLOQ 0.036
  Tissue Concentration (168 h): BQL
Brain (medulla), PO 15 mg/kg, Group 7, LLOQ 0.034
  Tissue Concentration (168 h): BQL
Brain (medulla), PO 15 mg/kg, Group 7
  AUCall: 0.5770 μg equiv · h/g
Cecum
  AUCall Ratio (PO/IV): 0.48
  Cmax Ratio (PO/IV): 1.07
Cecum, 2 h IV infusion 15 mg/kg, Group 4
  AUCall: 360.7580 μg equiv · h/g
Cecum, 2 h IV infusion 15 mg/kg, Group 4, LLOQ 0.036
  Tissue Concentration (168 h): 0.08 μg equiv/g
Cecum, PO 15 mg/kg, Group 7, LLOQ 0.034
  Tissue Concentration (168 h): 0.137 μg equiv/g
Cecum, PO 15 mg/kg, Group 7
  AUCall: 174.4118 μg equiv · h/g
Epididymis
  AUCall Ratio (PO/IV): 0.33
  Cmax Ratio (PO/IV): 0.16
Epididymis, 2 h IV infusion 15 mg/kg, Group 4
  AUCall: 95.0160 μg equiv · h/g
Epididymis, 2 h IV infusion 15 mg/kg, Group 4, LLOQ 0.036
  Tissue Concentration (168 h): 0.129 μg equiv/g
Epididymis, PO 15 mg/kg, Group 7, LLOQ 0.034
  Tissue Concentration (168 h): 0.042 μg equiv/g
Epididymis, PO 15 mg/kg, Group 7
  AUCall: 31.1150 μg equiv · h/g
Esophagus
  AUCall Ratio (PO/IV): 0.38
  Cmax Ratio (PO/IV): 1.89
Esophagus, 2 h IV infusion 15 mg/kg, Group 4
  AUCall: 73.1850 μg equiv · h/g
Esophagus, 2 h IV infusion 15 mg/kg, Group 4, LLOQ 0.036
  Tissue Concentration (168 h): 0.041 μg equiv/g
Esophagus, PO 15 mg/kg, Group 7, LLOQ 0.034
  Tissue Concentration (168 h): BQL
Esophagus, PO 15 mg/kg, Group 7
  AUCall: 27.9015 μg equiv · h/g
Eye (lens), 2 h IV infusion 15 mg/kg, Group 4
  AUCall: 0.1545 μg equiv · h/g
Eye (lens), 2 h IV infusion 15 mg/kg, Group 4, LLOQ 0.036
  Tissue Concentration (168 h): BQL
Eye (lens), PO 15 mg/kg, Group 7, LLOQ 0.034
  Tissue Concentration (168 h): BQL
Eye (uveal tract)
  AUCall Ratio (PO/IV): 0.32
  Cmax Ratio (PO/IV): 0.43
Eye (uveal tract), 2 h IV infusion 15 mg/kg, Group 4
  AUCall: 51.5575 μg equiv · h/g
Eye (uveal tract), 2 h IV infusion 15 mg/kg, Group 4, LLOQ 0.036
  Tissue Concentration (168 h): BQL
Eye (uveal tract), PO 15 mg/kg, Group 7, LLOQ 0.034
  Tissue Concentration (168 h): BQL
Eye (uveal tract), PO 15 mg/kg, Group 7
  AUCall: 16.2765 μg equiv · h/g
Harderian Gland
  AUCall Ratio (PO/IV): 0.25
  Cmax Ratio (PO/IV): 0.12
Harderian Gland, 2 h IV infusion 15 mg/kg, Group 4
  AUCall: 257.6905 μg equiv · h/g
Harderian Gland, 2 h IV infusion 15 mg/kg, Group 4, LLOQ 0.036
  Tissue Concentration (168 h): 0.403 μg equiv/g
Harderian Gland, PO 15 mg/kg, Group 7, LLOQ 0.034
  Tissue Concentration (168 h): 0.11 μg equiv/g
Harderian Gland, PO 15 mg/kg, Group 7
  AUCall: 63.7645 μg equiv · h/g
Heart
  AUCall Ratio (PO/IV): 0.54
  Cmax Ratio (PO/IV): 0.15
Heart, 2 h IV infusion 15 mg/kg, Group 4
  AUCall: 58.1205 μg equiv · h/g
Heart, 2 h IV infusion 15 mg/kg, Group 4, LLOQ 0.036
  Tissue Concentration (168 h): 0.062 μg equiv/g
Heart, PO 15 mg/kg, Group 7, LLOQ 0.034
  Tissue Concentration (168 h): 0.045 μg equiv/g
Heart, PO 15 mg/kg, Group 7
  AUCall: 31.1603 μg equiv · h/g
Kidney Cortex
  AUCall Ratio (PO/IV): 0.42
  Cmax Ratio (PO/IV): 0.18
Kidney Cortex, 2 h IV infusion 15 mg/kg, Group 4
  AUCall: 1919.6850 μg equiv · h/g
Kidney Cortex, 2 h IV infusion 15 mg/kg, Group 4, LLOQ 0.036
  Tissue Concentration (168 h): 0.33 μg equiv/g
Kidney Cortex, PO 15 mg/kg, Group 7, LLOQ 0.034
  Tissue Concentration (168 h): 0.342 μg equiv/g
Kidney Cortex, PO 15 mg/kg, Group 7
  AUCall: 804.4980 μg equiv · h/g
Kidney Medulla
  AUCall Ratio (PO/IV): 0.48
  Cmax Ratio (PO/IV): 0.34
Kidney Medulla, 2 h IV infusion 15 mg/kg, Group 4
  AUCall: 717.8445 μg equiv · h/g
Kidney Medulla, 2 h IV infusion 15 mg/kg, Group 4, LLOQ 0.036
  Tissue Concentration (168 h): 0.138 μg equiv/g
Kidney Medulla, PO 15 mg/kg, Group 7, LLOQ 0.034
  Tissue Concentration (168 h): 0.201 μg equiv/g
Kidney Medulla, PO 15 mg/kg, Group 7
  AUCall: 342.0130 μg equiv · h/g
Large Intestine
  AUCall Ratio (PO/IV): 0.45
  Cmax Ratio (PO/IV): 0.61
Large Intestine, 2 h IV infusion 15 mg/kg, Group 4
  AUCall: 310.7965 μg equiv · h/g
Large Intestine, 2 h IV infusion 15 mg/kg, Group 4, LLOQ 0.036
  Tissue Concentration (168 h): 0.103 μg equiv/g
Large Intestine, PO 15 mg/kg, Group 7, LLOQ 0.034
  Tissue Concentration (168 h): 0.06 μg equiv/g
Large Intestine, PO 15 mg/kg, Group 7
  AUCall: 140.3313 μg equiv · h/g
Liver
  AUCall Ratio (PO/IV): 0.66
